Laboratory results as given in US10889611B2, “Sialyltransferase inhibitors and uses thereof” (Academia Sinica, priority 2015, dated 2021).
Marks after values point to notes of the source that are not given here.

How the values were obtained:
[1] = biological target: T1, α2,3(N)-sialyltransferase ST3GALIII (Rattus norvegicus, UniProt Q02734); assay: Sialyltransferase activity assay, ST3GALIII; type: biochemical; settings: calculated based on the concentration, of ST inhibitor used toward α2,3-O-ST3GALI, listed as 3 (FCW34)
T1 construct: purchased Calbiochem
T1 sequence (Q02734 1-374): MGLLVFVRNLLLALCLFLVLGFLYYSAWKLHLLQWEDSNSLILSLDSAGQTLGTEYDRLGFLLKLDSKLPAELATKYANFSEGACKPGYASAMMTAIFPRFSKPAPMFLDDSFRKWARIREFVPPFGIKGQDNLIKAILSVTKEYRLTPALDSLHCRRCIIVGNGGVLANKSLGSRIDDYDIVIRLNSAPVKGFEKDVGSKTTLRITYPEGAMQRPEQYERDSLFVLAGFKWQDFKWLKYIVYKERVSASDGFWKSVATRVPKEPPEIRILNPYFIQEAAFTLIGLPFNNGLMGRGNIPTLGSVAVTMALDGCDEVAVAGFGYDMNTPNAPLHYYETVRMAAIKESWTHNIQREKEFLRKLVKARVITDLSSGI
Procedure: The enzymes analyzed in the present study included rat ST3Gal(I), rat ST3Gal(III), and human ST6Gal(I). Rat ST3Gal(I) and rat ST3Gal(Ill), were purchased from Calbiochem®, while human ST6Gal(I) was purchased from RnDSystems.com.
(§1) Sialyltransferase inhibition assay […] was performed as follows: Sialyltransferase activity was determined by measuring the level of the end product of sialylated saccharides with reverse-phase HPLC. The assay mixtures contained the following components: 200 mM MES buffer; 100 mM NaCl; 0.5 mM EDTA; 0.01% Triton X-100; 1.4 mU ST3GALI; 2.5 mM T-antigen; 1 mM CMP-Neu5Ac and different concentration of Sialyltransferase inhibitors to a total volume of 50 μl. The assay mixture was incubated at 37° C. for 15 mins and then quenched by heating up to 101′C for 10 mins. The sialylated product was resolved by reversed-phase HPLC. Kinetic data were obtained by fitting the initial rate data to the nonlinear regression equation.
as §1, with “mU ST6GALI; 25 μM Galβ1-4GlcNAc;” for “mU ST3GALI; 2.5 mM T-antigen;”, “to 101° C.” for “to 101′C”, “product is” for “product was”, “resolved with” for “resolved by”
Effects of the present compounds on the activity of sialyltransferase, including α2,3(N)-sialyltransferase ST3GALIII, α2,6(N)-sialyltransferases ST6GALI, and α2,3(O)-sialyltransferase ST3GALI, were determined in accordance with procedures described in the “Materials and Methods” section, and results are summarized in Table 1.

[2] = biological target: T2, α2,3(O)-sialyltransferase ST3GALI (Rattus norvegicus, UniProt Q6H8N0); assay: Sialyltransferase inhibition assay, ST3GALI (reverse-phase HPLC); type: biochemical; settings: read-out: ST3GALI inhibition percentage
T2 construct: purchased Calbiochem
T2 sequence (Q6H8N0 1-340): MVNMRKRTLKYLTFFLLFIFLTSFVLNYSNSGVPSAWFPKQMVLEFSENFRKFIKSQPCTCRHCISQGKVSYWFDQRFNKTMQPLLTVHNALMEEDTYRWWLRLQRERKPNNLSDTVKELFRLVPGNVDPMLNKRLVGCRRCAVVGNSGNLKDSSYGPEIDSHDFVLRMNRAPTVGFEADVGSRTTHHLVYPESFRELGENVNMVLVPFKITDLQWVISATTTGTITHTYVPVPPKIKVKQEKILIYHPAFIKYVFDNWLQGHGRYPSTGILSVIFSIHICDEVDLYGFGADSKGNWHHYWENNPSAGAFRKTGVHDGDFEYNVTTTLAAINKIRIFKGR
In short: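 Rat ST3Gal(I) (1.4 mU) was incubated with 2.5 mM T-antigen and 1 mM CMP-Neu5Ac in 200 mM MES, 100 mM NaCl, 0.5 mM EDTA and 0.01% Triton X-100 with varied inhibitor, 15 min at 37 °C, then heat-quenched. Sialylated product was quantified by reverse-phase HPLC, and kinetic values came from nonlinear regression of initial rates.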

PANC-1 cells = assay: SNA lectin staining of 2,6-sialylation by FACS in PANC-1 cells; type: cell-based, human; settings: PANC-1 cells grown in fructose-containing medium, FIG. 3
Source text: PANC-1 cells were first grown in glucose-containing or fructose-containing medium treated with or without the presence of the test compound (i.e., FCW34 or AL10, which was used as a positive control), then the cells were stained with SNA lectin to measure 2,6-sialylation level by FACS analysis.

PANC-1 pancreatic tumor = assay: Inhibition of pancreatic tumor growth in SCID mice; type: in vivo
Procedure: SCID mice (6 weeks old) were orthotopically injected with 1×10^5 human pancreatic cells PANC-1 grown in glucose-containing or fructose-containing medium with or without the presence of the present compound (e.g., FCW34, 5 μM) on day 0. The progression of the tumor was followed by bioluminescence IVIS image analysis, and the test animals were then sacrificed by cervical dislocation after 14 weeks, and respective tumors and the liver sections were collected, and analyzed by histochemical staining with SNA lectin to measure 2,6-sialylation levels utilizing FACS analysis.

SMILES: C[C@H](CCC(=O)OCCOCCOCCN=[N+]=[N-])C1CC[C@H]2[C@@H]3CC[C@@H]4C[C@H](OC(=O)[C@H](CC(=O)O)Nc5ccc([N+](=O)[O-])c6nonc56)CC[C@]4(C)[C@H]3CC[C@]12C (stereo partly drawn) [Compound 3, (3S)-4-(((3R,5R,8R,9S,10S,13R,14S)-17-((R)-5-(2-(2-(2-azidoethoxy)ethoxy)ethoxy)-5-oxopentan-2-yl)-10,13-dimethylhexadecahydro-1H-cyclopenta[a]phenanthren-3-yl)oxy)-3-((7-nitrobenzo[c][1,2,5]oxadiazol-4-yl)amino)-4-oxobutanoic acid]
- selectivity ratio ST3GALI/ST3GALIII ([1]; 500 μM): >287^d
- selectivity ratio ST3GALI/ST3GALIII ([1]; 1 mM): (<575)^e
- inhibition at 500 µM ([2]; measured at 500 μM): 0%
- inhibition at 1000 µM ([2]; measured at 1 mM): 60%
- level of 2,6-sialylation (PANC-1 cells): greatly reduced
- metastatic lesions in livers (histological analysis) (PANC-1 pancreatic tumor; PANC-1 cells grown in fructose-containing medium): suppressed
- progression of the tumor (PANC-1 pancreatic tumor; PANC-1 cells pre-treated with FCW34, FIG. 5): halted significantly
- Liver lesions Incidence (PANC-1 pancreatic tumor; mice bearing pancreatic cancer): 0/3
